Results on one molecule are retold here after patent publication EP0351720B1, “Use of substituted 3,4-dihydro-2H-benzopyrans as medicaments against obstructive disorders of the lung” (HOECHST AKTIENGESELLSCHAFT, priority 1988, dated 1990).

The test concerns Histamin-induzierte Bronchokonstriktion. The test is described as follows: Influence on histamine-induced bronchoconstriction in anaesthetised, ventilated guinea pigs (modified Konzett-Rössler method), test substance given as aerosol. Format: in vivo, Meerschweinchen. The following applies: for % Hemmung der Histamin-induzierten Bronchokonstriktion: n = 6, change vs control. The procedure: a) Beeinflussung von Atemwegsstörungen Einfluß auf die histamin-induzierte Bronchokonstriktion am Meerschweinchen
Albino-Meerschweinchen beiderlei Geschlechts mit einem Gewicht zwischen 450 und 550 g wurden mit 60 mg/kg Pentobarbital i.p. narkotisiert. Nach Tracheotomie wurden sie mit einer Starlingpumpe (Fa. Braun, Melsungen) beatmet. Das Atemvolumen wurde so gewählt, daß die Lungen ausgiebig belüftet wurden. Der Beatmungsdruck wurde mit Hilfe einer Wassersäule auf 80 mm H₂O eingestellt (Rosenthal und Dervinis). Die Atemfrequenz betrug 30 Atemzüge/min. Ein Überschuß an verfügbarer Atemluft kann durch einen Nebenweg im Einatemschlauch zu einer als Wasser-Überdruckventil geschalteten Waschflasche gelangen. Wird von der Starling-Pumpe durch den Einatemschlauch Luft in die Lunge geblasen, so füllt sich diese so lange, bis der Druck in dem System den durch die Höhe der Wassersäule eingestellten Wert (80 mm H₂O) erreicht hat. Die noch weiter zuströmende Luft fließt durch das Überdruckventil in die Waschflasche. Dieser Luftüberschuß, der nach Überschreiten des eingestellten Drucks in die Flasche entweicht, wird mit Hilfe eines Pistonrekorders gemessen und gilt als Maß für eine Veränderung des Atemwiderstands. Die Messung erfolgte in einer von der ursprünglichen Konzett-Rössler-Methode leicht modifizierten Weise, indem der Pistonrekorder durch ein Staudruckrohr nach Fleisch (Typ 0000) ersetzt wurde. Der auftretende Druckunterschled wurde mit einem Differenzdruckwandler Statham PM 97 TC erfaßt. Zur Aufzeichnung der Meßwerte diente ein Mehrfachkanalschreiber der Fa. Hellige.
Die Testsubstanzen werden als Aerosol mit Hilfe eines Ultraschallverneblers (Monaghan M 650) verabreicht. Die Verneblerkammer wird in den Einatemschlauch der Atempumpe zwischengeschaltet und den Tieren gestattet, das Aerosol 1 min lang einzuatmen. Das zu vernebelnde Volumen beträgt 0,02 ml/min.
Vernebelt wird eine physiologische Kochsalzlösung, der die zu prüfende Substanz in Form einer Lösung in Propandiol zugesetzt wird.
In einem Kontrollversuch wird sichergestellt, daß das Lösemittel Propandiol/physiologische Kochsalzlösung keine Eigenwirkung besitzt.
Eine Bronchokonstriktion wird durch Gaben von Histamindihydrochlorid (6 - 12 »g/kg i.v.) induziert. Die Injektion erfolgt durch einen in die V. jugularis eingeführten Katheter. Die Dosierung wird so gewählt, daß ein respiratorischer "Überfluß" von 60 % des angebotenen Atemvolumens während der Histamin-induzierten Bronchokonstriktion auftritt. Die Histamingaben erfolgen in 5-Minuten-Intervallen. Nach mindestens 3 gut reproduzierbaren Bronchokonstriktionen werden die Testsubstanzen als Aerosol 1 min lang verabreicht und nach einer Einwirkungszeit von 2 min erneut die Bronchokonstriktion induziert und in 5-Minuten-Intervallen wiederholt. […]

In the case of `CC1(C)Oc2ccc(S(=O)(=O)c3ccccc3)cc2C(N2CCCC2=O)C1O` (single isomer, unassigned; (+)) [Beispiel 5a, (+)-3,4-Dihydro-2,2-dimethyl-6-phenylsulfonyl-4-(2-oxo-1-pyrrolidinyl)-2H-benzo[b]pyran-3-ol], the ED50 (Cavia porcellus, inhaled or nasal, aerosol, determined by linear regression of the % inhibition results, read-out: ID₅₀) is 4.39 µg/kg. For the same molecule, the “% Hemmung der Histamin-induzierten Bronchokonstriktion” value is, setting by setting: (Dosis 1 »g/kg as aerosol for 1 min) 14 ± 4%; (Dosis 3 »g/kg as aerosol for 1 min) 35 ± 4%; (Dosis 10 »g/kg as aerosol for 1 min) 77 ± 7%.
